Blank lines part the entries; values can stand above or below the compound they belong to.
Experiments:
B. subtilis = test: Synergy/antagonism two-drug combination assay, B. subtilis; type: cell-based
S. aureus = test: Synergy/antagonism two-drug combination assay, S. aureus; type: cell-based
E. coli = test: Synergy/antagonism two-drug combination assay, E. coli; type: cell-based
A. baumannii = test: Synergy/antagonism two-drug combination assay, A. baumannii; type: cell-based
K. pneumoniae = test: Synergy/antagonism two-drug combination assay, K. pneumoniae; type: cell-based
P. aeruginosa = test: Synergy/antagonism two-drug combination assay, P. aeruginosa; type: cell-based
EcUPPP = EcUPPP (Escherichia coli, UniProt P60932); test: EcUPPP inhibition, malachite-green assay; type: biochemical, E. coli; details: read-out: IC50 EuUPPP
EcUPPP, sequence (P60932 whole entry): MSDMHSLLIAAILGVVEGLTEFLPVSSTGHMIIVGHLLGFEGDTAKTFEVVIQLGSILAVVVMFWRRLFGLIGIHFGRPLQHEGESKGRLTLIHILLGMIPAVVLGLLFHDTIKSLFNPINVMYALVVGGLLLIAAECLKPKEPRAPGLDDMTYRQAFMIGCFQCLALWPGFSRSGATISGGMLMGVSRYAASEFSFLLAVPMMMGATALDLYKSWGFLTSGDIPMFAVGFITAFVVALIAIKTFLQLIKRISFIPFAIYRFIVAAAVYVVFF

MIC (B. subtilis; Bacillus subtilis): 0.5 µg/mL
MIC (S. aureus; Staphylococcus aureus): 5 µg/mL
Compound: O=C(N[C@H](CO)[C@H](O)c1ccc([N+](=O)[O-])cc1)C(Cl)Cl [Chloramphenicol]
FIC (B. subtilis; B. subtilis, combination of 32 with Chloramphenicol): 0.55 ± 0.13
FIC (S. aureus; S. aureus, combination of 32 with Chloramphenicol): 0.71 ± 0.11

MIC (B. subtilis; Bacillus subtilis): 200 µg/mL
MIC (S. aureus; Staphylococcus aureus): 200 µg/mL
Compound: C[C@@H]1O[C@@H]1P(=O)(O)O [Fosfomycin]
FIC (B. subtilis; B. subtilis, combination of 32 with Fosfomycin): 0.21 ± 0.025
FIC (S. aureus; S. aureus, combination of 32 with Fosfomycin): 0.13 ± 0.022

MIC (B. subtilis; B. subtilis, drug acting alone): 1.5 µg/mL
MIC (S. aureus; S. aureus, drug acting alone): 1.5 µg/mL
Compound: NC[C@H]1O[C@H](O[C@H]2[C@H](O)[C@@H](O[C@H]3O[C@H](CO)[C@@H](O)[C@H](N)[C@H]3O)[C@H](N)C[C@@H]2N)[C@H](O)[C@@H](O)[C@@H]1O [Kanamycin]
FIC (B. subtilis; B. subtilis, combination of 32 with Kanamycin): 0.61 ± 0.097
FIC (S. aureus; S. aureus, combination of 32 with Kanamycin): 0.81 ± 0.17

MIC (S. aureus; Staphylococcus aureus): 40 µg/mL
Compound: CN[C@@H]1[C@H](O)[C@H](NC)[C@H]2O[C@@]3(O)C(=O)C[C@@H](C)O[C@H]3O[C@@H]2[C@H]1O [Spectinomycin]
FIC (S. aureus; S. aureus, combination of 32 with Spectinomycin): 0.45 ± 0.091

MIC (B. subtilis; Bacillus subtilis): 200 µg/mL
MIC (S. aureus; Staphylococcus aureus): 200 µg/mL
Compound: Cc1cc(NS(=O)(=O)c2ccc(N)cc2)no1 [Sulfamethoxazole]
FIC (B. subtilis; B. subtilis, combination of 32 with Sulfamethoxazole): 0.87 ± 0.23
FIC (S. aureus; S. aureus, combination of 32 with Sulfamethoxazole): 0.75 ± 0.20

Second part, the compound before the results:

Compound: CC1(C)S[C@@H]2[C@H](NC(=O)[C@H](N)c3ccccc3)C(=O)N2[C@H]1C(=O)O [Ampicillin]
FIC (B. subtilis; B. subtilis, combination of 32 with Ampicillin): 0.18 ± 0.041
MIC (B. subtilis; Bacillus subtilis): 0.5 µg/mL
FIC (S. aureus; S. aureus, combination of 32 with Ampicillin): 0.30 ± 0.095
MIC (S. aureus; Staphylococcus aureus): 0.5 µg/mL

Compound: CC1(C)S[C@@H]2[C@H](NC(=O)C(C(=O)O)c3ccccc3)C(=O)N2[C@H]1C(=O)O (stereo partly drawn) [Carbenicillin]
FIC (B. subtilis; B. subtilis, combination of 32 with Carbenicillin): 0.25 ± 0.043
MIC (B. subtilis; Bacillus subtilis): 5 µg/mL
FIC (S. aureus; S. aureus, combination of 32 with Carbenicillin): 0.27 ± 0.015
MIC (S. aureus; Staphylococcus aureus): 15 µg/mL

Compound: CO/N=C(\C(=O)N[C@@H]1C(=O)N2C(C(=O)O)=C(COC(C)=O)CS[C@H]12)c1csc(N)n1 [Cefotaxime]
FIC (B. subtilis; B. subtilis, combination of 32 with Cefotaxime): 0.30 ± 0.044
MIC (B. subtilis; Bacillus subtilis): 2.5 µg/mL
FIC (S. aureus; S. aureus, combination of 32 with Cefotaxime): 0.21 ± 0.048
MIC (S. aureus; Staphylococcus aureus): 2 µg/mL

Compound: CN(C)[C@@H]1C(O)=C(C(N)=O)C(=O)[C@@]2(O)C(O)=C3C(=O)c4c(O)cccc4[C@@](C)(O)[C@H]3C[C@@H]12 [Tetracycline]
FIC (B. subtilis; B. subtilis, combination of 32 with Tetracycline): 0.82 ± 0.21
MIC (B. subtilis; Bacillus subtilis): 5 µg/mL
FIC (S. aureus; S. aureus, combination of 32 with Tetracycline): 0.83 ± 0.38
MIC (S. aureus; Staphylococcus aureus): 0.5 µg/mL

Compound: COc1cc(Cc2cnc(N)nc2N)cc(OC)c1OC [Trimethoprim]
FIC (B. subtilis; B. subtilis, combination of 32 with Trimethoprim): 0.77 ± 0.18
MIC (B. subtilis; Bacillus subtilis): 0.5 µg/mL
FIC (S. aureus; S. aureus, combination of 32 with Trimethoprim): 0.69 ± 0.32
MIC (S. aureus; Staphylococcus aureus): 15 µg/mL

Compound: CN[C@H](CC(C)C)C(=O)N[C@H]1C(=O)N[C@@H](CC(N)=O)C(=O)N[C@H]2C(=O)N[C@H]3C(=O)N[C@H](C(=O)N[C@H](C(=O)O)c4cc(O)cc(O)c4-c4cc3ccc4O)[C@H](O)c3ccc(c(Cl)c3)Oc3cc2cc(c3O[C@@H]2O[C@H](CO)[C@@H](O)[C@H](O)[C@H]2O[C@H]2C[C@](C)(N)[C@H](O)[C@H](C)O2)Oc2ccc(cc2Cl)[C@H]1O [Vancomycin]
FIC (B. subtilis; B. subtilis, combination of 32 with Vancomycin): 0.33 ± 0.058
MIC (B. subtilis; Bacillus subtilis): 0.5 µg/mL
FIC (S. aureus; S. aureus, combination of 32 with Vancomycin): 0.19 ± 0.019
MIC (S. aureus; Staphylococcus aureus): 1.5 µg/mL

Compound: O=CN(O)CCCP(=O)(O)O [fosmidomycin]
FIC (E. coli; E. coli, combination of 11 with fosmidomycin): 0.14 ± 0.13
MIC (E. coli; Escherichia coli): 5 µg/mL
FIC (A. baumannii; A. baumannii, combination of 11 with fosmidomycin): 0.27 ± 0.057
MIC (A. baumannii; Acinetobacter baumannii): 5 µg/mL
FIC (K. pneumoniae; K. pneumoniae, combination of 11 with fosmidomycin): 0.12 ± 0.014
MIC (K. pneumoniae; Klebsiella pneumoniae): 5 µg/mL
FIC (P. aeruginosa; P. aeruginosa, combination of 11 with fosmidomycin): 0.18 ± 0.066
MIC (P. aeruginosa; Pseudomonas aeruginosa): 3 µg/mL
FIC (B. subtilis; B. subtilis, combination of 32 with Fosmidomycin): 0.25 ± 0.043
MIC (B. subtilis; Bacillus subtilis): 5 µg/mL

Compound: Bacitracin
IC50 (EcUPPP): 32 µM
FIC (B. subtilis; B. subtilis, combination of 32 with Bacitracin): 0.12 ± 0.028
MIC (B. subtilis; B. subtilis, drug acting alone): 200 µg/mL
FIC (S. aureus; S. aureus, combination of 32 with Bacitracin): 0.21 ± 0.039
MIC (S. aureus; S. aureus, drug acting alone): 200 µg/mL

— publication PMC5160999 (ChemMedChem, 2016)
